{"source": "patent US20160297828A1", "about": "“SPIROCYCLIC COMPOUNDS CONTAINING SPIRO[INDOLYL-3,1'-PYRROLO[3,4-C]PYRROLE] CORE AND SULPHUR-CONTAINING AMINO ACID RESIDUES” (priority 2013, published 2016)", "key": {"[1]": {"tested_on": "rats with intracerebral hemorrhage", "assay": "Conditioned response of passive avoidance (CRPA) in rats with intracerebral hemorrhage", "assay_type": "in vivo", "settings": "21st day, n = 15"}, "[2]": {"tested_on": "rat heart bioelectrical activity", "assay": "Acute asphyxia, duration of heart bioelectrical activity", "assay_type": "in vivo, rats", "protocol": "Acute asphyxia was modeled in rats anesthetized with propofol (60 mg/kg) intraperitoneally (ip) by complete clamping the trachea at electrocardiogram (EGC) registration. The antihypoxic effect was evaluated by duration of heart bioelectric activity (HBA). This model allows to estimate the heart sensitivity to hypoxia. An isoelectric ECG line for 1 minute considered as HBA termination, the pint of HBA termination corresponded to the last QRS complex on the ECG. The calculation of […] activity was performed by the above formula considering a point of last QRS complex registration as a lifetime.\n(§1) The preliminary screening of test substances was performed on ANHHH model. All derivatives were administered in the same dose of 10 mg/kg […] (iv) 1 hour prior to pathological state modeling. […] The effectiveness of a leader compound was evaluated at doses 5; 10 and 15 mg/kg iv. Mexydol was chosen as a reference drug having antihypoxic action in combination with antioxidant and membrane protective activity, which is successfully used in patients with CVA and IM. Mexydol was administered intraperitoneally (ip) at a dose of 100 mg/kg according to similar scheme."}, "rats": {"tested_on": "rats", "assay": "Acute normobaric hypoxic hypoxia with hypercapnia (ANHHH), life duration", "assay_type": "in vivo", "settings": "preventive administration; SI-86 and SI-108 10 mg/kg iv, mexydol 100 mg/kg ip", "protocol": "The study of antihypoxic activity of 10 original derivatives of 3,2′-spiro-pyrrolo-2-oxindole was conducted on models of acute normobaric hypoxic hypoxia with hypercapnia (ANHHH) and acute asphyxia. ANHHH was modeled by means of rat arrangement into isolated pressure compartments (0.001 m^3). The observation conducted until the death of the animals. The antihypoxic activity was assessed by life duration (in minutes) in relation to the control taken as 100%, by the formula AA=tt/tk×100%, wherein AA—antihypoxic activity (%), tt—life duration of test animals, tc—life duration of control animals.\nas §1"}, "[3]": {"tested_on": "neuron-specific enolase (NSE)", "assay": "Neuron-specific enolase (NSE) activity in rats with bilateral carotid occlusion (ELISA)", "assay_type": "in vivo", "settings": "BCO; for NSE activity (dynamics of neurodestructive changes): n = 7", "protocol": "The derivative of 3,2′-spiro-pyrrolo-2-oxindole was studied in conventionally effective dose of 10 mg/kg […] (iv)—dose that by the results of our previous study provided maximum antihypoxic activity of the SI-86compound. Reference drugs were injected intraperitoneally (ip). […] BCO was made to rats of control pathology and as therapy 0.9% NaCI solution was administered calculated for 2 ml/kg ip.\nPseudooperative rats were exposed to all interventions (anesthesia, skin incision, dissection of vessels) except arteries ligation that leveled traumatic effect of experimental conditions.\nTo determine neurospecific enolase, specific marker of cerebral ischemia,—to the period (4 th and 21 st day of CVA) in rat's blood was sampled by sagittal sinus puncture (0.2-0.4 ml). NSE activity was measured by ELISA using a set NSE EIA KIT (DAI, USA) on the instrument of the company “Hipson” (Czech Republic)."}, "liver and pancrea cells": {"tested_on": "liver and pancrea cells", "assay": "Pro/antiapoptosis properties, electrophoresis of DNA fragments", "assay_type": "in vivo", "settings": "intact male Wistar rats; 50 mg/kg", "protocol": "The assessment of pro/antiapoptotosis properties of substances was carried in intact male rats of Wistar line. The test substance were administered for 2 weeks by means of a probe in aqueous suspension containing Tween-80 at a dose of 50 mg/kg of body weight. The animals were euthanized by cervical vertebrae translocation 24 hours after the experiment. The identification of apoptosis of liver and pancrea cells was performed using electrophoretic method. […] Cell necrosis conditioned the “smeared” nature of DNA migration zone. The luminescence band of intact DNA was in the starting area.\nThe expression of apoptosis manifestations was assessed by registration of DNA fragments via electrophoresis."}}, "note": "Marks after values point to notes of the source that are not given here.", "data": [{"smiles": "CSCC[C@@H]1N[C@@]2(C(=O)Nc3ccccc32)[C@@H]2C(=O)N(c3ccc(C)cc3)C(=O)[C@H]12", "note": "[SI-86, 5′-(4-Methylphenyl)-3′-[2-(methylthio)ethyl]-3a′,6a′-dihydro-2′H-spiro[indole-3,1′-pyrrolo[3,4-c]pyrrol]-2,4′,6′(1H,3′H,5′H)-trione]", "values": [{"measurement": "Latent period for entrance into dark compartment, prior study", "setting": "[1]; SI-86 10 mg/kg iv, mexydol 100, citocoline 250, actovegin 16, pyracetam 400 mg/kg ip", "result": "9.50 ± 0.34", "unit": "°*^#•$ s"}, {"measurement": "Latent period for entrance into dark compartment, 24 hours after study", "setting": "[1]; same doses", "result": "127.10 ± 2.71", "unit": "°*^#•$ s"}, {"measurement": "Antihypoxic activity", "setting": "[2]; 5 mg/kg iv", "result": "+12.1%"}, {"measurement": "Duration of heart bioelectrical activity", "setting": "[2]; 5 mg/kg iv", "result": "13.0 ± 1.5", "unit": "min"}, {"measurement": "Antihypoxic activity", "setting": "[2]; 10 mg/kg iv", "result": "+5.8%"}, {"measurement": "Duration of heart bioelectrical activity", "setting": "[2]; 10 mg/kg iv", "result": "12.3 ± 1.4", "unit": "min"}, {"measurement": "Antihypoxic activity", "setting": "[2]; 15 mg/kg iv", "result": "−2.8", "unit": "%"}, {"measurement": "Duration of heart bioelectrical activity", "setting": "[2]; 15 mg/kg iv", "result": "11.3 ± 1.0", "unit": "min"}, {"measurement": "increase of life duration in rats in relation to control", "setting": "rats", "result": 33.7, "unit": "%"}, {"measurement": "enzyme activity decreased in relation to the control pathology group", "setting": "[3]; 96 hours", "result": 2.03, "unit": "times"}, {"measurement": "enzyme activity decreased in relation to the control pathology group", "setting": "[3]; 21 days", "result": 3.84, "unit": "times"}, {"measurement": "effectiveness in reducing NSE better than citocoline", "setting": "[3]; acute period", "result": 1.6, "unit": "times"}, {"measurement": "NSE activity (dynamics of neurodestructive changes)", "setting": "[3]; day 4, SI-86 10 mg/kg iv, citocoline 250 mg/kg ip", "result": "0.61 ± 0.004*^#•"}, {"measurement": "NSE activity (dynamics of neurodestructive changes)", "setting": "[3]; day 21, same doses", "result": "0.204 ± 0.015*^#•"}, {"measurement": "effectiveness in reducing NSE better than citocoline", "setting": "[3]; recovery period", "result": 1.9, "unit": "times"}, {"measurement": "level of apoptosis", "setting": "liver and pancrea cells", "result": "closed to that of control group"}]}]}
